Data set [1] deals with jack bean urease (Canavalia ensiformis, UniProt P07374). The data set is described as follows: biochemical. The procedure:
The inhibitory activity of 1-(3-nitropyridin-2-yl)piperazine derivatives (5a-o; 7a-k) was assessed in vitro against urease with minor modifications using the indophenol method ([Al Azzam et al., 2022]; [Da Costa et al., 2022]). At first, 1 mM solution of a test compound was prepared in 10% DMSO followed by the preparation of the reaction mixture. The reaction mixture was prepared by adding 30 μL of reaction buffer (100 mmol/L of urea, 1 mmol/L of EDTA, 10 mmol/L of LiCl2, 10 mmol/L of KH2PO4; pH: 8.2), 50 μL of R1 (120 mmol/L phosphate buffer, 60 mmol/L sodium salicylate, 5 mmol/L sodium nitroprusside, 1 mmol/L EDTA and 5 KU/L urease), 10 μL of substrate (1 mM urea), and 10 μL of test compound in triplicate in a 96-well plate. After 5 min of incubation at ambient temperature, 70 μL of R2 (120 mmol/L phosphate buffer, 400 mmol/L sodium hydroxide, and 10 mmol/L sodium hypochlorite) was added to the reaction mixture ([Rauf et al., 2013]). After another incubation period of 10 min at room temperature, the absorbance was measured using a microplate reader (Bio-Tek, United States) at a particular wavelength of 630 nm. […] The following equation was used to determine the percentage of inhibition for each test compound. Percentage inhibition=100–Absorbance of test compound/ Absorbance of negative control×100
The IC50 values of test compounds (5a-o; 7a-k) at various concentrations were determined by analyzing the data, obtained from in vitro urease inhibitory assay, by GraphPad Prism version 8.0.2 (GraphPad, California, United States).

The subject of data set [2] is human blood cells. The data set can be described thus: In vitro hemocompatibility screening (hemolysis). The class given is cell-based. The note with it: hemolysis percentage at 0.5 mg/mL and 1 mg/mL nearer to that of PBS. As to the method:
1-(3-nitropyridin-2-yl)piperazine 3 and its derivatives (5b, 5c, 5i; 7e, 7h) were analyzed for hemolysis activity due to their remarkable urease inhibition potential. […] Experimental data on hemolysis percentage have been depicted in Figure 5.
Hemolysis is the rupturing of the cell membrane of red blood cells that causes the expulsion of hemoglobin into the blood plasma. To analyze the effects of 1-(3-nitropyridin-2-yl)piperazine 3 and its derivatives (5b, 5c, 5i; 7e, 7h) on human blood, a hemolysis analysis was carried out (Supplementary Figure S69). About 5 mL fresh sample of human blood was collected from a volunteer and transferred to a vacutainer tube containing EDTA to prevent coagulation. The ultracentrifugation of the blood sample was carried out at 3,000 rpm for 20 min and the separated plasma was discarded. The blood cells were washed about three times by using a double volume of phosphate buffer solution (PBS) (pH = 7.4). […] To quantify hemoglobin in test samples, the absorbance of the supernatant was measured at 540 nm ([Munawwar et al., 2023]). From the absorbance value, the hemolysis percentage was determined by the following formula: Hemolysis %=Absorbance of test sample−Absorbance of negative control/[…]

“Also recorded” adds a separate entry of the source.

jack bean urease, sequence (P07374 whole entry, looked up): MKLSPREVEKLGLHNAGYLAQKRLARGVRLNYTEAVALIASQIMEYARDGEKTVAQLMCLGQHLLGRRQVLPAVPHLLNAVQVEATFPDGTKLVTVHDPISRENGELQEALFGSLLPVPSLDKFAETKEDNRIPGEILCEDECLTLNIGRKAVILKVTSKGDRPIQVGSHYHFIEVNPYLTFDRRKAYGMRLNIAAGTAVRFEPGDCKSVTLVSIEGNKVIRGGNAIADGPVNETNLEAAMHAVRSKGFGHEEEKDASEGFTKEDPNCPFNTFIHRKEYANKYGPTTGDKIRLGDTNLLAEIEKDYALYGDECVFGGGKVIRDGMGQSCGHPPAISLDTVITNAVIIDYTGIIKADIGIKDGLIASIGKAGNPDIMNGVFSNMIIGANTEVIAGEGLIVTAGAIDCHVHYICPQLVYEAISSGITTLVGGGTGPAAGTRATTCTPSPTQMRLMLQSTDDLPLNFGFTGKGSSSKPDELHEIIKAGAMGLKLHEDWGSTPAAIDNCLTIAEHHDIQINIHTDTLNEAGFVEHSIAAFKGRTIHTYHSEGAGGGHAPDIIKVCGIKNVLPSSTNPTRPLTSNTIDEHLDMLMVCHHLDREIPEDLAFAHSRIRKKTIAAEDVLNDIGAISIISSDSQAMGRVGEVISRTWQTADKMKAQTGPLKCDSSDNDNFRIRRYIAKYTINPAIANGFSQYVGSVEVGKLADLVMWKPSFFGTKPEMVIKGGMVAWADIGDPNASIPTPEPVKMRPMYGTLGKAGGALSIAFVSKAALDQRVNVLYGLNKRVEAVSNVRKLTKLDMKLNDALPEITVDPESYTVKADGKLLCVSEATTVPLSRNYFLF

As to `O=C(CN1CCN(c2ncccc2[N+](=O)[O-])CC1)Nc1ccccc1` [5a, 2-(4-(3-Nitropyridin-2-yl)piperazin-1-yl)-N-phenylacetamide], the melting point (as a rule, the temperature, or range, at which the solid turns liquid) fell in the range of 79 to 80 °C. For the same molecule, in data set [1], the IC50 (as a rule, the concentration that gives 50% inhibition) worked out at 3.58 ± 0.84 µM. Taken in the same sequence, the figures for `O=C(CN1CCN(c2ncccc2[N+](=O)[O-])CC1)Nc1cccc(Br)c1` [5f, N-(3-Bromophenyl)-2-(4-(3-nitropyridin-2-yl)piperazin-1-yl)acetamide] were 101 to 102 °C and 5.24 ± 0.45 µM. Take `CC(C(=O)Nc1cccc(Cl)c1)N1CCN(c2ncccc2[N+](=O)[O-])CC1` (centres unmarked) [7b, N-(3-Chlorophenyl)-2-(4-(3-nitropyridin-2-yl)piperazin-1-yl)propanamide]: the melting point was in the range of 107 to 109 °C. In data set [1], the IC50 came to 6.7 ± 0.37 µM.

Molecule `O=C(CN1CCN(c2ncccc2[N+](=O)[O-])CC1)Nc1ccc(Cl)cc1` [5d, N-(4-Chlorophenyl)-2-(4-(3-nitropyridin-2-yl)piperazin-1-yl)acetamide] registered a melting point of 99 to 100 °C. In addition, the IC50 in data set [1] was determined as 8.25 ± 0.41 µM. Molecule `O=C(CN1CCN(c2ncccc2[N+](=O)[O-])CC1)Nc1ccccc1Br` [5e, N-(2-Bromophenyl)-2-(4-(3-nitropyridin-2-yl)piperazin-1-yl)acetamide] gave a melting point of 109 to 110 °C. Moreover, the IC50 in data set [1] was determined as 4.47 ± 0.44 µM. Taken in the same sequence, the figures for `COc1ccc(NC(=O)CN2CCN(c3ncccc3[N+](=O)[O-])CC2)cc1` [5o, N-(4-Methoxyphenyl)-2-(4-(3-nitropyridin-2-yl)piperazin-1-yl)acetamide] were 107 to 108 °C and 5.21 ± 0.47 µM.

For the molecule `Cc1ccc(NC(=O)C(C)N2CCN(c3ncccc3[N+](=O)[O-])CC2)cc1` (centres unmarked) [7i, N-(para-Tolyl)-2-(4-(3-nitropyridin-2-yl)piperazin-1-yl)propanamide], the melting point lay in the range of 88 to 89 °C. Further, it took 5.65 ± 0.4 µM to reach half-maximal inhibition in data set [1] (IC50). The corresponding values for `Cc1cccc(NC(=O)CN2CCN(c3ncccc3[N+](=O)[O-])CC2)c1` [5l, 2-(4-(3-Nitropyridin-2-yl)piperazin-1-yl)-N-(meta-tolyl)acetamide] are 95 to 96 °C and 7.14 ± 0.46 µM. The corresponding values for `Cc1ccc(NC(=O)CN2CCN(c3ncccc3[N+](=O)[O-])CC2)cc1` [5m, 2-(4-(3-Nitropyridin-2-yl)piperazin-1-yl)-N-(para-tolyl)acetamide] are 112 to 113 °C and 9.37 ± 0.4 µM. Molecule `Cc1ccccc1NC(=O)C(C)N1CCN(c2ncccc2[N+](=O)[O-])CC1` (centres unmarked) [7h, N-(ortho-Tolyl)-2-(4-(3-nitropyridin-2-yl)piperazin-1-yl)propanamide] displayed a melting point of 90 to 92 °C. In addition, the IC50 in data set [1] amounted to 3.01 ± 0.45 µM. The “biocompatibility in human blood cells (hemolysis percentage)” value in data set [2] is recorded as “more biocompatible; also recorded: good biocompatibility”.

As for `O=C(CN1CCN(c2ncccc2[N+](=O)[O-])CC1)Nc1ccc(Br)cc1` [5g, N-(4-Bromophenyl)-2-(4-(3-nitropyridin-2-yl)piperazin-1-yl)acetamide], the melting point was 115 to 116 °C. This molecule also registered an IC50 in data set [1] of 8.43 ± 0.41 µM. The corresponding values for `O=C(CN1CCN(c2ncccc2[N+](=O)[O-])CC1)Nc1cccc([N+](=O)[O-])c1` [5i, N-(3-Nitrophenyl)-2-(4-(3-nitropyridin-2-yl)piperazin-1-yl)acetamide] are 139 to 141 °C and 2.56 ± 0.55 µM.

The molecule `O=C(CN1CCN(c2ncccc2[N+](=O)[O-])CC1)Nc1ccc([N+](=O)[O-])cc1` [5j, N-(4-Nitrophenyl)-2-(4-(3-nitropyridin-2-yl)piperazin-1-yl)acetamide] returned a melting point of 145 to 146 °C. Also, the midpoint of inhibition in data set [1], the IC50, lay at 4.19 ± 0.41 µM.

Regarding `COc1ccccc1NC(=O)C(C)N1CCN(c2ncccc2[N+](=O)[O-])CC1` (centres unmarked) [7j, N-(2-Methoxyphenyl)-2-(4-(3-nitropyridin-2-yl)piperazin-1-yl)propanamide], the melting point is 108 to 110 °C. In addition, in data set [1], the IC50 is 5.32 ± 0.41 µM. In the case of `O=C(CN1CCN(c2ncccc2[N+](=O)[O-])CC1)Nc1ccccc1[N+](=O)[O-]` [5h, N-(2-Nitrophenyl)-2-(4-(3-nitropyridin-2-yl)piperazin-1-yl)acetamide], the melting point fell in the range of 113 to 115 °C. Also, 7.12 ± 0.39 µM corresponded to half-maximal inhibition in data set [1] (IC50).

In the case of `CC(C(=O)Nc1ccc([N+](=O)[O-])cc1)N1CCN(c2ncccc2[N+](=O)[O-])CC1` (centres unmarked) [7g, N-(4-Nitrophenyl)-2-(4-(3-nitropyridin-2-yl)piperazin-1-yl)propanamide], the melting point was in the range of 159 to 161 °C. This molecule gave a half-inhibitory concentration (IC50) in data set [1] of 6.13 ± 0.4 µM.

`CC(C(=O)Nc1cccc([N+](=O)[O-])c1)N1CCN(c2ncccc2[N+](=O)[O-])CC1` (centres unmarked) [7f, N-(3-Nitrophenyl)-2-(4-(3-nitropyridin-2-yl)piperazin-1-yl)propanamide] gave a melting point of 120 to 121 °C. Further, the IC50 in data set [1] came out at 7.66 ± 0.37 µM. `O=[N+]([O-])c1cccnc1N1CCNCC1` [compound 3, 1-(3-Nitropyridin-2-yl)piperazine] yielded an IC50 in data set [1] of 3.9 ± 1.91 µM. Molecule `O=C(CN1CCN(c2ncccc2[N+](=O)[O-])CC1)Nc1cccc(Cl)c1` [5c, N-(3-Chlorophenyl)-2-(4-(3-nitropyridin-2-yl)piperazin-1-yl)acetamide] showed a melting point of 71 to 73 °C. The concentration for half-maximal inhibition (IC50) in data set [1] was determined as 2.13 ± 0.82 µM. The corresponding values for `CC(C(=O)Nc1ccc(Cl)cc1)N1CCN(c2ncccc2[N+](=O)[O-])CC1` (centres unmarked) [7c, N-(4-Chlorophenyl)-2-(4-(3-nitropyridin-2-yl)piperazin-1-yl)propanamide] are 57 to 59 °C and 7.38 ± 0.37 µM. Taken in the same sequence, the figures for `CC(C(=O)Nc1ccccc1)N1CCN(c2ncccc2[N+](=O)[O-])CC1` (centres unmarked) [7a, 2-(4-(3-Nitropyridin-2-yl)piperazin-1-yl)-N-phenylpropanamide] were 92 to 94 °C and 7.41 ± 0.44 µM.

For the molecule `COc1ccccc1NC(=O)CN1CCN(c2ncccc2[N+](=O)[O-])CC1` [5n, N-(2-Methoxyphenyl)-2-(4-(3-nitropyridin-2-yl)piperazin-1-yl)acetamide], the melting point fell in the range of 120 to 121 °C. The molecule further showed an IC50 in data set [1] of 5.33 ± 0.44 µM.

The molecule `CC(C(=O)Nc1ccccc1Br)N1CCN(c2ncccc2[N+](=O)[O-])CC1` (centres unmarked) [7d, N-(2-Bromophenyl)-2-(4-(3-nitropyridin-2-yl)piperazin-1-yl)propanamide] had a melting point of 91 to 94 °C. The molecule also registered an IC50 in data set [1] of 6.74 ± 0.49 µM. The molecule `O=C(CN1CCN(c2ncccc2[N+](=O)[O-])CC1)Nc1ccccc1Cl` [5b, N-(2-Chlorophenyl)-2-(4-(3-nitropyridin-2-yl)piperazin-1-yl)acetamide] yielded an IC50 in data set [1] of 2 ± 0.73 µM. Molecule `Cc1ccccc1NC(=O)CN1CCN(c2ncccc2[N+](=O)[O-])CC1` [5k, 2-(4-(3-Nitropyridin-2-yl)piperazin-1-yl)-N-(ortho-tolyl)acetamide] yielded a melting point of 105 to 106 °C. The IC50 in data set [1] is 14.1 ± 0.67 µM. In data set [1], `CC(C(=O)Nc1ccccc1[N+](=O)[O-])N1CCN(c2ncccc2[N+](=O)[O-])CC1` (centres unmarked) [7e, N-(2-Nitrophenyl)-2-(4-(3-nitropyridin-2-yl)piperazin-1-yl)propanamide] displayed an IC50 of 2.24 ± 1.63 µM. Further, the “biocompatibility in human blood cells (hemolysis percentage)” value in data set [2] is reported as “more biocompatible; also recorded: good biocompatibility”. In turn, `COc1ccc(NC(=O)C(C)N2CCN(c3ncccc3[N+](=O)[O-])CC2)cc1` (centres unmarked) [7k, N-(4-Methoxyphenyl)-2-(4-(3-nitropyridin-2-yl)piperazin-1-yl)propanamide] gave a melting point of 62 to 64 °C. Also, it took 5.95 ± 0.43 µM to reach half-maximal inhibition in data set [1] (IC50).

The values above are taken from article PMC10965793, “Synthesis and biological evaluation of pyridylpiperazine hybrid derivatives as urease inhibitors” (Frontiers in Chemistry, 2024).
